In article PMC7782499, “Progerinin, an optimized progerin-lamin A binding inhibitor, ameliorates premature senescence phenotypes of Hutchinson-Gilford progeria syndrome” (Communications Biology, 2021):
Where “and” joins values, the source holds several entries; their conditions need not be identical. Identical values can stand only once.

Legend:
HGPS cells = test: Ki67-positive cells in HGPS cells; assay type: cell-based, human; conditions: for Ki67 positive cells/total cells: AG03199; for Ki67 positive cells/total cells (ratio): AG11498, 3 days
Method: A. In vivo pharmacokinetic (PK) analysis of JH010 (performed in rats). […] B Effect of SLC-D011 on human ERG (hERG). […] C In vivo pharmacokinetic analysis of SLD-D011. […] HEK293 cells transiently transfected with GFP-PG vectors were treated with SLC-D011 for 24 hr (n = 3 independent experiment; two-tailed Student’s t test). […] “Con” means dimethyl sulfoxide (DMSO)-treated control.
Cells were cultured on coverslips, washed with PBS, fixed with 4% paraformaldehyde (PFA) for 30 min at RT, and then permeabilized with 0.2% Triton X-100 at RT for 5 min. After treatment with blocking solution (anti-Human antibody diluted 1:400 in PBS) for 1 h, cells were incubated with anti-lamin A/C (1:400), anti-progerin (1:100), Ki67 (1:200), and anti-H3K9me3 (1:200) in blocking buffer overnight at 4 °C. Finally, cells were incubated with fluorescein isothiocyanate and rhodamine-conjugated secondary antibodies at 4 °C for 7 h. Nuclei were stained with DAPI (4, 6-diamidino-2-phenylindole) at RT for 10 min. After cells were washed three times with PBS, coverslips were mounted with mounting solution (H-5501; Vector Laboratories, Burlingame, CA, USA). Immunofluorescence signal was detected with a fluorescence microscopy (Zeiss and Logos).
HGPS cells were treated with SLC-D011 at a low concentration ( from 10
nM to 5μM) for 3 days. C. […]
[…] DAPI indicated DNA.

[1] = Maximum tolerated dose study in Beagle dogs, escalated-dose oral administration; assay type: in vivo; conditions: both sexes, beagle, dog, in vivo; oral gavage, dose escalation
Description: The protocol and procedures involving the care and use of animals in this study was reviewed and approved by IACUC of QuBEST BIO prior to conduct (Approval no.: QBSIACUC-A18142). During the study, the care and use of animals will be conducted in accordance with all applicable guidelines of Animal Welfare Act. Non-naive one male and one female Beagle dogs (~16–24 months old, original supplier: ORIENTBIO Co., Ltd, Korea) were selected from the stock colony and assigned for the study. The route of administration was the oral (by gavage) route, which is the anticipated clinical route of exposure. Test article formulations were administered once via oral gavage. The day of 1st dosing was designated as Day 1. Each dose was administered via a syringe attached with 12-french feeding tube. A dose volume of 5 ml/kg was used and individual dose volumes were based on the most recent body weight. Each dose was followed by a distilled water of 5 ml. Each animal was observed twice daily (a.m. and p.m.) for mortality and moribundity; findings were recorded as they were observed. Cage side observations were made for each animal once daily; abnormal findings were recorded. […] Body weights were measured prior to each dosing. […] Prior to dosing and ~24 h post each dose, blood was collected as the same method and frequency with hematology analysis using no anticoagulant and then serum was separated by centrifugation and stored at freezer until analyze (AU 400, Olympus, Japan; […] 744 Na^+/K^+/[…] Analyzer, SIEMENS, Germany). In terminal procedures, all surviving animals were returned to the stock colony without necropsy. Toxicity studies were performed by QuBEST BIO Co., Ltd (Yongin, Korea).
The objective of this study was to determine the maximum tolerated dose (MTD) of SLC-D011 following dose escalation by oral gavage to Beagle dogs.
The study group was detailed in Text Table 1.
Text Table 1. Study Group
Dose Level Dose Conc. No. of Animals†
Group Treatment (mg/kg) (mg/mL)
†: Animals were re-used for each dose with at least 4-day wash-out period.
The following parameters were evaluated in this study: mortality, clinical signs, body weights and clinical pathology parameters (hematology and serum biochemistry).
Mortality and Clinical Observations
All animals survived until end of the study. Test article-related clinical observations were limited to oily soft stool in the 100 mg/kg/day group animals and vomitus (frothy) and soft sto ol in the 400 […]
Clinical Pathology Parameters (Hematology and Serum Chemistry) […]
the 100 and 400 mg/kg group animals on approximately 24 hours post each dose, compared to pre […]
Based on the results of this study, the maximum tolerated dose (MTD) of SLC-D011 was considered to […]
Test article formulations were administered once via oral gavage. The day of 1st dosing was designated […]
Each dose was administered via a syringe attached with 12-french feeding tube. A dose volume of 5 mL/kg was used and individual dose volumes were based on the most recent body weight. Each dose was followed by a distilled water of 5 mL. […]
Each animal was observed twice daily (a.m. and p.m.) for mortality and moribundity; findings were recorded as they were observed. Cage side observations were made for each animal once daily; abnormal findings were recorded. Detailed observations were made for each animal once prior to treatment; abnormal findings (ranked/graded, if appropriate) or an indication the animal appears […]
Body weights were measured prior to each dosing. […]
Prior to each dosing and approximately 24 hours post each dose, blood samples for hematology examination were collected from the via cephalic vein into tubes with K2EDTA anticoagulant and […]
Parameters Unit Measurement Method
ⓐ RBC (Red blood cell count) 106/μL Electric Impedance […]
ⓒ HGB (Hemoglobin conc.) g/dL Cyanmethemoglobin […]

Compound: CC1(C)Oc2cc3oc(=O)ccc3cc2C[C@@H]1OC/C=C/c1ccccc1 [SLC-D011]
- Ki67 positive cells/total cells (HGPS cells; 10nM, Ave): 0.1497 ratio
- Ki67 positive cells/total cells (HGPS cells; 10nM, individual replicate): 0.0625 ratio and 0.2083 ratio and 0.1538 ratio and 0.1646 ratio and 0.1594 ratio
- Ki67 positive cells/total cells (HGPS cells; 50nM, Ave): 0.369 ratio
- Ki67 positive cells/total cells (HGPS cells; 50nM, individual replicate): 0.2857 ratio and 0.375 ratio and 0.4444 ratio and 0.5 ratio and 0.24 ratio
- Ki67 positive cells/total cells (HGPS cells; 100nM, Ave): 0.418 ratio
- Ki67 positive cells/total cells (HGPS cells; 100nM, individual replicate): 0.275 ratio and 0.3214 ratio and 0.4286 ratio and 0.44 ratio and 0.625 ratio
- Ki67 positive cells/total cells (HGPS cells; 500nM, Ave): 0.45 ratio
- Ki67 positive cells/total cells (HGPS cells; 500nM, individual replicate): 0.3889 ratio and 0.5 ratio and 0.5714 ratio and 0.3684 ratio and 0.4211 ratio
- Ki67 positive cells/total cells (HGPS cells; 1μM, Ave): 0.4556 ratio
- Ki67 positive cells/total cells (HGPS cells; 1μM, individual replicate): 0.4146 ratio and 0.4286 ratio and 0.5 ratio and 0.4792 ratio
- Ki67 positive cells/total cells (HGPS cells; 2μM, Ave): 0.479 ratio
- Ki67 positive cells/total cells (HGPS cells; 2μM, individual replicate): 0.5 ratio (2×) and 0.44 ratio and 0.4762 ratio
- Ki67 positive cells/total cells (HGPS cells; 5μM, Ave): 0.4663 ratio
- Ki67 positive cells/total cells (HGPS cells; 5μM, individual replicate): 0.3571 ratio and 0.2857 ratio and 0.75 ratio and 0.5909 ratio and 0.3478 ratio
- Ki67 positive cells/total cells (ratio) (HGPS cells; 10nM): 0.25 and 0.2222 and 0.2143 and 0.3
- Ki67 positive cells/total cells (ratio) (HGPS cells; 10nM, mean): 0.2466
- Ki67 positive cells/total cells (ratio) (HGPS cells; 50nM): 0.2857 and 0.3333 and 0.375 and 0.2
- Ki67 positive cells/total cells (ratio) (HGPS cells; 50nM, mean): 0.2985
- Ki67 positive cells/total cells (ratio) (HGPS cells; 100nM): 0.3333 and 0.3125 and 0.4 and 0.375
- Ki67 positive cells/total cells (ratio) (HGPS cells; 100nM, mean): 0.3552
- Ki67 positive cells/total cells (ratio) (HGPS cells; 500nM): 0.375 and 0.4444 and 0.4286
- Ki67 positive cells/total cells (ratio) (HGPS cells; 500nM, mean): 0.4058
- Ki67 positive cells/total cells (ratio) (HGPS cells; 1μM): 0.3333 and 0.4 and 0.6 and 0.375
- Ki67 positive cells/total cells (ratio) (HGPS cells; 1μM, mean): 0.4271
- Ki67 positive cells/total cells (ratio) (HGPS cells; 2μM): 0.4 and 0.375 and 0.4167
- Ki67 positive cells/total cells (ratio) (HGPS cells; 2μM, mean): 0.3979
- Concentration enough for inducing Ki67 expression (HGPS cells; HGPS cells): 100 nM
- MTD [1]: > 400 mg/kg
